From patent US20230165906A1, “COMPOSITIONS AND METHODS FOR USING TRANSPLANTED MICROGLIA AS A VEHICLE FOR WIDESPREAD DELIVERY OF CELLS AND OTHER BIOLOGIC AGENTS TO THE BRAIN” (Albert Einstein College of Medicine, priority 2020, published 2023) come the findings set out here.

The subject of one assay is host microglia. Nature of the assay: Pharmacological ablation of host microglia in vivo (Iba1 staining). The conditions noted are these: PLX5622 given to mice via chow for 7 days prior to transplantation. The text has this: For pharmacological ablation of host microglia, PLX5622 (Plexxikon Inc.), a drug that inhibits CSF1R, was given to the mice via chow for 7 days prior to transplantation. This treatment kills approximately 90% of host microglia (FIG. 3). PLX5622 is a blood-brain-barrier permeable drug in clinical trials. Two days before transplantation, PLX5622 treatment was stopped to avoid potentially killing donor cells. […]. Thus, with daily injection of tamoxifen, donor microglia outcompete host microglia for repopulation.

Assay [1] has as its system cultured human primary microglia. Description: Screening of human microglia for resistance to PLX5622-induced cell death. The conditions noted are these: for resistance to PLX5622-mediated cell ablation: mutant CSF1R expressed in cultured human primary microglia via retrovirus infection. Type of assay: cell-based. The text has this:
(§1) FIGS. 5A-I show screening of human and mouse microglia for resistance to PLX5622. Human microglia (5A) are normally susceptible to CSF1R antagonist PLX5622-induced cell death (5B). […] Similarly, mouse microglia (5G) are normally susceptible to CSF1R antagonist-induced cell death (5H).
Although dispersion of mouse microglia was achieved using the protocol described in Example 2, continued genetic ablation of host microglia after transplantation of donor microglia cannot likely be used in a clinical setting. Therefore, to achieve dispersion of microglia independent of any genetic manipulations, a novel method to make microglia resistant to ablation by a CSF1R inhibitor such as PLX5622 was developed. Based on the mechanism of action of PLX5622 (antagonizing the critical CSF1R receptor), mutant forms of CSF1R that are constitutively active and potentially convey resistance to PLX5622 were screened (FIG. 5). […] Mutant CSF1Rs were expressed in human donor microglia via retrovirus infection. Such PLX5622-resistant microglia can then be transplanted to hosts in which endogenous microglia are continuously being depleted pharmacologically with PLX5622 post transplantation to allow donor microglia to outcompete residual endogenous microglia for repopulation. We are currently testing resistance of microglia expressing CSFIR^L301S and others to PLX5622 ablation in vivo.

Another assay deals with mouse microglia. Nature of the assay: Screening of mouse microglia for resistance to PLX5622-induced cell death. The assay is classed as cell-based. The following applies: no mutant CSF1R.
Excerpt: as §1

Turning to `COc1ncc(F)cc1CNc1ccc(Cc2c[nH]c3ncc(C)cc23)c(F)n1` [PLX5622, 6-fluoro-N-[(5-fluoro-2-methoxypyridin-3-yl)methyl]-5-[(5-methyl-1H-pyrrolo[2,3-b]pyridin-3-yl)methyl]pyridin-2-amine], in the assay on host microglia, the host microglia killed result was “approximately 90%”. The “susceptibility to CSF1R antagonist PLX5622-induced cell death” value in assay [1] (human microglia, no mutant CSF1R) was “susceptible”. For the same compound, the “susceptibility to CSF1R antagonist-induced cell death” value with mouse microglia is reported as “susceptible”. As to “CSF1R^L301S: constitutively active gain-of-function mutant CSF1R expressed in donor microglia”, the “resistance to PLX5622-mediated cell ablation” value in assay [1] is “high resistance”. As to “CSR1R^Y571D: constitutively active gain-of-function mutant CSF1R expressed in donor microglia”, the “resistance to PLX5622-mediated cell ablation” value in assay [1] is on record as “high resistance”. Same read-out and setting: in the case of “CSR1R^Y969F: constitutively active gain-of-function mutant CSF1R expressed in donor microglia” it was “high resistance”.
